Biological target: Mitotic checkpoint serine/threonine-protein kinase BUB1 (Homo sapiens, UniProt O43683)
Experiment: Inhibition of Bub1 kinase (unknown origin) by TR-FRET kinase assay

Chain of Mitotic checkpoint serine/threonine-protein kinase BUB1 (O43683 whole entry): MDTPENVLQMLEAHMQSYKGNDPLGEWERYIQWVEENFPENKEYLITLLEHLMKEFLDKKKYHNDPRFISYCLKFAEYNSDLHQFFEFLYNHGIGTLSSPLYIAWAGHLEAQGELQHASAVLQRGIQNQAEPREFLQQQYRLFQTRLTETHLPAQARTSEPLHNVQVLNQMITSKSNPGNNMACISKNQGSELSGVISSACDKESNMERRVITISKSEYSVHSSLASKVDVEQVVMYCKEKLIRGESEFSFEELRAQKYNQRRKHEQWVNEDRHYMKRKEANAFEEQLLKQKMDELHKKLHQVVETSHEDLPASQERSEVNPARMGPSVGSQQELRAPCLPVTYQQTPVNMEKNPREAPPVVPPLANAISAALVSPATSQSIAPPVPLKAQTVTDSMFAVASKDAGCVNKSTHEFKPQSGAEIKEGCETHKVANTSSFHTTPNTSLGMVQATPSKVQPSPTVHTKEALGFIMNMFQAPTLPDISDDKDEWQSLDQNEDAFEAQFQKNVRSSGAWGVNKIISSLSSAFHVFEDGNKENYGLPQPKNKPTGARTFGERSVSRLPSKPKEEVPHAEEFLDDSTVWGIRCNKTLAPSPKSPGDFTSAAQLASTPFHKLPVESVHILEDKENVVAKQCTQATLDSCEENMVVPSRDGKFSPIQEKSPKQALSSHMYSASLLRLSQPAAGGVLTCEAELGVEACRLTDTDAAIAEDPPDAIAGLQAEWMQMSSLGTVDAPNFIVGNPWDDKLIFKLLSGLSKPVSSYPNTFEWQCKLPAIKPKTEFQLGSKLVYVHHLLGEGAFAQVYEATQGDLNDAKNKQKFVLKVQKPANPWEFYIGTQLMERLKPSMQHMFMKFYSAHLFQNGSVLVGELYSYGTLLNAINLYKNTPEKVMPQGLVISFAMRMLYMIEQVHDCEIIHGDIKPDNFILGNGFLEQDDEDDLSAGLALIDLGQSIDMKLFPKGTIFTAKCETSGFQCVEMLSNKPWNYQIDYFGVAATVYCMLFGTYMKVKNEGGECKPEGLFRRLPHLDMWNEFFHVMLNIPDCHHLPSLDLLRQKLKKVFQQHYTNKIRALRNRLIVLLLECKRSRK

Compound `CCOC(=O)c1cnccc1Nc1nc(-c2nn(Cc3ccccc3F)c3c2CCC3)ncc1Oc1ccccc1C(=O)OCC` has an IC50 of 500 nM.
